Measured values: patent US20210137948A1, “TREATMENT OF INFECTIONS CAUSED BY NEISSERIA GONOCOCCUS USING A HALOGENATED SALICYLANILIDE” (priority 2018, published 2021)
In brackets after ≈: the same amount, converted by molar mass. Read-outs that look alike come from different tables or passages of the source.

Tests used:
mice = settings: p.o., cited from earlier work
rabbits = settings: p.o.; cited from earlier work
[1] = test system: Neisseria gonorrhoeae CDC panel consisting of 48 isolates; assay: Agar dilution MIC, CDC panel of 48 isolates (Example 2); assay type: cell-based; settings: for MIC: Neisseria gonorrhoeae
Experimental: Neisseria gonorrhoeae (Neisseria gonocossus) were tested for antimicrobial susceptibility using agar dilution as described by the Clinical and Laboratory Standards Institute (CLSI), see reference (4).
The concentrations tested for each compound encompass the reported interpretive breakpoints and consist of 8 or more doubling dilutions, ensuring that there is one dilution below the lowest value of QC.
GC agar base +1% defined growth supplement.
Initial screening strains: Neisseria gonorrhoeae CDC panel consisting of 48 isolates. The strains were provided by Clinical and Environmental Microbiology Branch, Division of Healthcare Quality Promotion, CDC (Atlanta, US).
Dilution scheme for reference method: Prepare intermediate 100× antimicrobial agent solutions by making successive serial twofold dilutions. Then, add one part of the 100× antimicrobial solution to […] of molten agar. Plates containing no antimicrobial agent solutions are made for use as growth controls. It is important that no longer than one hour elapses between the time that the stock solution is thawed, the dilutions are prepared and added to the base medium and the plates are poured, see reference (5).
• Add appropriate dilutions of antimicrobial solution to molten test agars that have been allowed to equilibrate in a water bath to 50° C. • Mix the agar and antimicrobial solution thoroughly and pour (20 mL) into Petri dishes on a level surface. Pour quickly after mixing to prevent cooling and partial solidification in the mixing container. Avoid generating bubbles when mixing. • Allow the agar to solidify at room temperature and store them in sealed plastic bags at 2 to 8° C. for up to five days. Preferably use with 24 hours. • Allow plates stored at 2 to 8° C. to equilibrate to room temperature before use. Make certain that the agar surface is dry before inoculating the plates. If necessary, place the plates in an incubator or laminar flow hood for approximately 30 minutes with their lids ajar to hasten drying of the agar surface.
Inoculum preparation: Prepare a standardized inoculum for the agar dilution method by suspending isolated colonies of Neisseria gonorrhoeae selected from an 18-24 hour-old chocolate agar plate directly in Mueller Hinton Broth (MHB) to achieve the density equivalent to a 0.5 McFarland standard and adjusted to obtain a cell density of ˜1-2×10^8 CFU/mL. For N. gonorrhoeae, the McFarland solutions are made at a reading of ˜0.80 in densitometer (Grant Instruments DEN-1B Densitometer) because these values have been evaluated and correspond to the desired CFU/mL count.
Dilution of inoculum suspension: Cultures adjusted to the 0.5 McFarland standard contain approximately 1 to 2×10^8 CFU/mL with most species, and the final inoculum required is 10^4 CFU per spot. When using replicators with 3-mm pins that deliver ˜2.5 μL, dilute the 0.5 McFarland suspension 1:10 in sterile MHB to obtain a concentration of 10^7 CFU/mL. The final inoculum on the agar will be approximately 10^4 CFU per spot. Use the adjusted suspensions for final inoculation within 60 minutes of preparation, see reference (5).
The following procedure was followed: • Arrange the tubes containing the adjusted and diluted bacterial suspensions (10^7 CFU/mL) in order in a rack. Place an aliquot of each well-mixed suspension into the corresponding well in the replicator inoculum block (if being used). • Mark the agar plates for orientation of the inoculum spots. • Apply an aliquot of each inoculum (2.5 μL) to the agar surface, either with an inocula-replicating device or pipette, to obtain a final concentration of ˜10^4 CFU/spot. • Inoculate a growth-control plate (no antimicrobial agent) first and then, starting with the lowest concentration, inoculate the plates containing the different antimicrobial concentrations. […]

rats = settings: p.o., cited from earlier work

For O=C(Nc1ccc(Oc2ccc(Cl)cc2)c(Cl)c1)c1cc(I)cc(I)c1O [Rafoxanide, rafoxanide], the “LD50, median” value (mice; median of the studies) is given as 266 mg/kg, the LD50 (mice) is given as 232 to 300 mg/kg and the LD50 (rabbits) is given as 3200 mg/kg. For the same compound, the MIC ([1]; read-out: MIC value, for 46 of the 48 isolates of N. gonorrhoeae) was ≤ 50.2 µg/mL, the MIC ([1]; read-out: Minimal inhibitory concentration, Neisseria gonorrhoeae strain CDC # 165) was ≤ 0.25 µg/mL and the MIC ([1]; read-out: Minimal inhibitory concentration, Neisseria gonorrhoeae strain CDC # 166) was ≤ 0.25 µg/mL. For the same compound, the MIC ([1]; read-out: Minimal inhibitory concentration, Neisseria gonorrhoeae strain CDC # 167) was ≤ 0.25 µg/mL, the MIC ([1]; read-out: Minimal inhibitory concentration, Neisseria gonorrhoeae strain CDC # 169) was ≤ 0.25 µg/mL and the MIC ([1]; read-out: Minimal inhibitory concentration, Neisseria gonorrhoeae strain CDC # 170) was ≤ 0.25 µg/mL. For the same compound, the MIC ([1]; read-out: Minimal inhibitory concentration, Neisseria gonorrhoeae strain CDC # 171) was ≤ 0.25 µg/mL, the MIC ([1]; read-out: Minimal inhibitory concentration, Neisseria gonorrhoeae strain CDC # 172) was ≤ 0.25 µg/mL and the MIC ([1]; read-out: Minimal inhibitory concentration, Neisseria gonorrhoeae strain CDC # 173) was ≤ 0.25 µg/mL. The MIC ([1]; read-out: Minimal inhibitory concentration, Neisseria gonorrhoeae strain CDC # 174) was ≤ 0.25 µg/mL, the MIC ([1]; read-out: Minimal inhibitory concentration, Neisseria gonorrhoeae strain CDC # 175) was ≤ 0.25 µg/mL and the MIC ([1]; read-out: Minimal inhibitory concentration, Neisseria gonorrhoeae strain CDC # 176) was ≤ 0.25 µg/mL. The MIC ([1]; read-out: Minimal inhibitory concentration, Neisseria gonorrhoeae strain CDC # 177) was ≤ 0.25 µg/mL, the MIC ([1]; read-out: Minimal inhibitory concentration, Neisseria gonorrhoeae strain CDC # 178) was ≤ 0.25 µg/mL and the MIC ([1]; read-out: Minimal inhibitory concentration, Neisseria gonorrhoeae strain CDC # 179) was ≤ 0.25 µg/mL. The MIC ([1]; read-out: Minimal inhibitory concentration, Neisseria gonorrhoeae strain CDC # 180) was ≤ 0.25 µg/mL, the MIC ([1]; read-out: Minimal inhibitory concentration, Neisseria gonorrhoeae strain CDC # 181) was ≤ 0.25 µg/mL and the MIC ([1]; read-out: Minimal inhibitory concentration, Neisseria gonorrhoeae strain CDC # 182) was 2 µg/mL (≈ 3.19 µM). For the same compound, the MIC ([1]; read-out: Minimal inhibitory concentration, Neisseria gonorrhoeae strain CDC # 183) was ≤ 0.25 µg/mL, the MIC ([1]; read-out: Minimal inhibitory concentration, Neisseria gonorrhoeae strain CDC # 184) was ≤ 0.25 µg/mL and the MIC ([1]; read-out: Minimal inhibitory concentration, Neisseria gonorrhoeae strain CDC # 185) was ≤ 0.25 µg/mL. For the same compound, the MIC ([1]; read-out: Minimal inhibitory concentration, Neisseria gonorrhoeae strain CDC # 186) was ≤ 0.25 µg/mL, the MIC ([1]; read-out: Minimal inhibitory concentration, Neisseria gonorrhoeae strain CDC # 187) was ≤ 0.25 µg/mL and the MIC ([1]; read-out: Minimal inhibitory concentration, Neisseria gonorrhoeae strain CDC # 188) was ≤ 0.25 µg/mL. The MIC ([1]; read-out: Minimal inhibitory concentration, Neisseria gonorrhoeae strain CDC # 189) was ≤ 0.25 µg/mL, the MIC ([1]; read-out: Minimal inhibitory concentration, Neisseria gonorrhoeae strain CDC # 190) was ≤ 0.25 µg/mL and the MIC ([1]; read-out: Minimal inhibitory concentration, Neisseria gonorrhoeae strain CDC # 191) was ≤ 0.25 µg/mL. The MIC ([1]; read-out: Minimal inhibitory concentration, Neisseria gonorrhoeae strain CDC # 192) was ≤ 0.25 µg/mL, the MIC ([1]; read-out: Minimal inhibitory concentration, Neisseria gonorrhoeae strain CDC # 193) was ≤ 0.25 µg/mL and the MIC ([1]; read-out: Minimal inhibitory concentration, Neisseria gonorrhoeae strain CDC # 194) was ≤ 0.25 µg/mL. The MIC ([1]; read-out: Minimal inhibitory concentration, Neisseria gonorrhoeae strain CDC # 195) was ≤ 0.25 µg/mL, the MIC ([1]; read-out: Minimal inhibitory concentration, Neisseria gonorrhoeae strain CDC # 196) was ≤ 0.25 µg/mL and the MIC ([1]; read-out: Minimal inhibitory concentration, Neisseria gonorrhoeae strain CDC # 198) was ≤ 0.25 µg/mL. For the same compound, the MIC ([1]; read-out: Minimal inhibitory concentration, Neisseria gonorrhoeae strain CDC # 199) was ≤ 0.25 µg/mL, the MIC ([1]; read-out: Minimal inhibitory concentration, Neisseria gonorrhoeae strain CDC # 200) was ≤ 0.25 µg/mL and the MIC ([1]; read-out: Minimal inhibitory concentration, Neisseria gonorrhoeae strain CDC # 201) was ≤ 0.25 µg/mL. The MIC ([1]; read-out: Minimal inhibitory concentration, Neisseria gonorrhoeae strain CDC # 202) was ≤ 0.25 µg/mL, the MIC ([1]; read-out: Minimal inhibitory concentration, Neisseria gonorrhoeae strain CDC # 203) was ≤ 0.25 µg/mL and the MIC ([1]; read-out: Minimal inhibitory concentration, Neisseria gonorrhoeae strain CDC # 204) was 0.5 µg/mL (≈ 0.799 µM). For the same compound, the MIC ([1]; read-out: Minimal inhibitory concentration, Neisseria gonorrhoeae strain CDC # 205) was ≤ 0.25 µg/mL, the MIC ([1]; read-out: Minimal inhibitory concentration, Neisseria gonorrhoeae strain CDC # 206) was ≤ 0.25 µg/mL and the MIC ([1]; read-out: Minimal inhibitory concentration, Neisseria gonorrhoeae strain CDC # 207) was ≤ 0.25 µg/mL. The MIC ([1]; read-out: Minimal inhibitory concentration, Neisseria gonorrhoeae strain CDC # 208) was ≤ 0.25 µg/mL, the MIC ([1]; read-out: Minimal inhibitory concentration, Neisseria gonorrhoeae strain CDC # 209) was ≤ 0.25 µg/mL and the MIC ([1]; read-out: Minimal inhibitory concentration, Neisseria gonorrhoeae strain CDC # 210) was ≤ 0.25 µg/mL. The MIC ([1]; read-out: Minimal inhibitory concentration, Neisseria gonorrhoeae strain CDC # 211) was ≤ 0.25 µg/mL, the MIC ([1]; read-out: Minimal inhibitory concentration, Neisseria gonorrhoeae strain CDC # 212) was ≤ 0.25 µg/mL and the MIC ([1]; read-out: Minimal inhibitory concentration, Neisseria gonorrhoeae strain CDC # 213) was ≤ 0.25 µg/mL. The MIC ([1]; read-out: Minimal inhibitory concentration, Neisseria gonorrhoeae strain CDC # 214) was ≤ 0.25 µg/mL, the “in vitro activity (in words)” value ([1]; against N. gonococcus (N. gonorrhoeae), Example 2 conclusion) was “Good in vitro activity” and the “LD50, median” value (rats; median of the studies) was > 1490 mg/kg. The LD50 (rats) was 980->2000 mg/kg.
